Patent US8999984B2, “Macrophage migration inhibitory factor antagonists and methods of using same” (University of Louisville Research Foundation, Inc., priority 2006, dated 2015)
d = 2'-deoxy (DNA); r = 2'-OH (RNA)

Tests used:
VEGF = assay: CoCl2-induced VEGF expression and secretion (ELISA); format: cell-based; details: read-out: suppression of PHD inhibitor (CoCl2) induced VEGF
Excerpt: It was next tested whether the observed differences in the catalytic inhibitory activities between these two compounds was similarly observed in this biological assay of MIF inhibition. […] Of note, this ˜5 fold difference in biological inhibitory activity closely corresponds to the ˜5 fold difference in enzymatic inhibitory activity that was observed when comparing these two compounds (FIG. 8).

[1] = test system: A549 human lung adenocarcinoma cells; assay: A549 anchorage-independent growth in soft agar; format: cell-based; details: FIG. 11; for inhibition of A549 soft agar growth: 10, 50 or 100 μM, 20 days
Description: FIG. 11 is a graph showing inhibitors of MIF prevent anchorage-independent growth. 10^5 A549 human lung adenocarcinoma cells were plated in soft agar, containing vehicle (0.1% DMSO) or 10, 50 or 100 μM ISO-1 or 4-iodo-6-phenylpyrimidine (CMPD 16). 20 days later, colonies were stained and enumerated. Data are representative of two independent experiments.

recombinant MIF (rMIF) = molecular target: T1, recombinant MIF (rMIF) (Homo sapiens, UniProt P14174); assay: L-dopachrome methyl ester tautomerase assay; format: biochemical
T1 construct: made in house
T1 sequence (P14174 2-115 limits assumed): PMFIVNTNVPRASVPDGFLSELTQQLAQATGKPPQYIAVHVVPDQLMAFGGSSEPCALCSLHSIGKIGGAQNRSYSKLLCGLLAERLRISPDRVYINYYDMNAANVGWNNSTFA
Description: 500 nM recombinant MIF (rMIF) was pre-mixed for either 5 (filled) or 10 (open) minutes with the indicated inhibitor concentrations followed by the addition of 2 mM final concentration of L-dopachrome methyl ester substrate. 5 minutes later OD 475 was measured spectrophotometrically, with tautomerization leading to colorless substrate.
Dopachrome tautomerase assay. […] MIF catalysis and inhibitory studies can be performed as described (Lubetsky et al., 2002). […] Activity can be determined at room temperature by adding dopachrome methyl ester (0.3 ml) to a cuvette containing 500 nM rMIF (Bernhagen et al., 1994) in 50 mM potassium phosphate buffer, pH 6, 0.5 mM EDTA and 5 minutes later measuring the decrease in absorbance at 475 nm spectrophotometrically. […] Additionally, candidate inhibitors identified in the last section of the present Example can be dissolved in DMSO at various concentrations and added to the cuvette (final concentration of DMSO will be no more than 0.1%) with the MIF 1 minute prior to the addition of the dopachrome substrate.

HIF-1α [2] = assay: CoCl2-induced HIF-1α stabilization in MIA-PaCa pancreatic adenocarcinoma cells (nuclear lysate immunoblot); format: cell-based, human; details: for suppression of HIF-1α, of control: 10 μM
Description: (§1) FIGS. 9A-9C are pictures of immunoblots showing MIF tautomerase inhibitors block HIF-1 stabilization in an MIF-specific manner. […] After 5 hours, nuclear lysates were isolated and subjected to immunoblotting for HIF-1. In FIGS. 9A and 9B, MIA-PaCa pancreatic adenocarcinoma cells were used. In FIG. 9C, MIF+/+ and MIF−/− mouse embryonic fibroblasts were evaluated.
As noted hereinabove, (see FIG. 4), it has been determined that MIF is necessary for hypoxia and prolyl hydroxylase inhibitor-induced HIF-1αstabilization and subsequent hypoxic adaptation of pancreatic adenocarcinoma cells. It was next tested whether MIF pharmacologic inhibitors were capable of recapitulating the destabilizing effects on HIF-1α we had observed using MIF siRNA (FIG. 4). In addition to testing the newly-determined MIF antagonist 4-iodo-6-phenylpyrimidine (also referred to as “compound #16”), the TI compound identified in the Orita screen (FIG. 8) was also tested.

[3] = MTD / toxicity study, daily injections for 7 days; format: in vivo; details: daily injections for 7 days of 0.5, 1, 2 and 4 mg (25, 50, 100 and 200 mg/kg)
Excerpt: (§2) A study to determine the MTD and in vivo inhibitory activity of compound #16 was also completed. […] In vivo enzyme inhibition by compound #16 was next analyzed. […] Further, the discovery of the present MIF inhibitory compounds of Formula I disclosed herein by the present novel virtual screening and systematic testing methods validates the present approach and experimental design to identify further MIF small molecule inhibitors.

HIF-1α [4] = assay: Total HIF-1α ELISA, CoCl2-induced HIF stabilization; format: cell-based; details: Homo sapiens, compound #16 at 50 μM, read-out: inhibition of CoCl2-induced HIF stabilization, of control
Excerpt: Screening of HIF-1α de-stabilization by candidate MIF inhibitors. The presently disclosed discovery that MIF plays a central role in HIF stability was from studies done in pancreatic adenocarcinoma cell lines. […] This cell line can be utilized for large scale testing of candidate MIF antagonists. In order to scale up this in vitro screen, a DuoSet ELISA-based assay to detect total HIF-1α in human cell lysates can be utilized (R & D Systems). […] MIA-Paca-2 cells can be plated at 5×10^5 cells/well in 24 well plates for 16 hours. Media can be replaced with fresh media containing 0.1% DMSO (− control), 50 μM #16 (+ control) and 5, 50 μM concentrations of test inhibitor, all in duplicate wells. After 1 hour, cells can be challenged with 150 μM CoCl2 for an additional 6 hours. After rinsing the cells twice with PBS, supplied kit lysis buffer can be used to lyse the cells following manufacturer's directions. Prior coating and blocking of HIF-1α capture antibody can be performed according to instructions and diluted cell lysates can be assayed on the HIF-1α ELISA plates.

MIF/sCD74 = molecular target: T2, MIF/sCD74 (Homo sapiens, UniProt P14174); assay: MIF/MIF receptor (CD74) capture assay; format: binding; details: 0.1 μM antagonist against 0.2 μM biotinylated MIF (maximal inhibition possible 50%); FIG. 14B
T2 construct: made in house; host or cells: E. coli BL21 (DE3)pLysS (sCD74)
T2 sequence (P14174 2-115 limits assumed): T1 sequence (P14174 2-115 limits assumed)
Description: FIGS. 14A-14C are a schematic (FIG. 14C) of a MIF/MIF receptor capture assay and graphs of data collected from the assay (FIGS. 14A and 14B) that provides a tool for structure-function studies of MIF muteins and candidate inhibitors. […] FIG. 14A is a graph of data from the assay where CD74 coated plates were pre-incubated with the indicated concentrations of native MIF (MIF), denatured MIF or P1G MIF followed by the addition of 0.2 μM biotin-hrMIF. FIG. 14B is a graph of data from the assay where 1.0 μM of denatured MIF (dMIF), native MIF (MIF) or anti-CD74 were pre-incubated with soluble CD74 for 30 mins before adding 0.2 μM biotin-hrMIF. For inhibitors, 0.1 μM ISO-1 or 4-iodo-6-phenyl pyrimidine (Cmp16) were pre-incubated for 30 mins with 0.2 μM biotin-hrMIF before adding mixture to CD74 coated plate. In both FIGS. 14A and 14B, plates were developed 2 hours later by incubating Streptavidin-AP followed by PnPP and measurement at OD405.
As previously noted, the ability of small molecule antagonists to block MIFs biological functions requires the blockade of MIF binding to its cell surface receptor (Meyer-Siegler et al., 2006). […]
96 well plates can be coated with 60 μl/well of purified, soluble CD74 (CD74^73-232) at 0.1 mg/ml and incubated at 4° C. overnight. […] After washing, 60 μl/well of PNPP (Sigma) is added and allowed to develop in the dark until being read at 405 nm.

HIF-1α [5] = assay: HIF-1α stabilization in MIF-containing and MIF-deficient mouse embryonic fibroblasts; format: cell-based; details: FIG. 9C
Description: as §1
Lastly, in order to verify that the effect of #16 on HIF-1α inhibition is through its inhibitory effects on MIF, MIF-containing cells and MIF-deficient cells were tested for inhibitory activity.

endogenous liver MIF = molecular target: T3, endogenous liver MIF (Mus musculus, UniProt P34884); assay: In vivo inhibition of liver MIF tautomerase activity; parameters: species or system C57BI/6 mice; details: single bolus injection 50 mg/kg, 6 hours post-injection, FIG. 13, read-out: inhibition of endogenous liver MIF enzyme tautomerase activity
T3 construct: from tissue; host or cells: mouse liver homogenate
Description: FIG. 13 is a graph showing the MIF inhibitor 4-iodo-6-phenyl pyrimidine inhibits MIF in vivo. C57BI/6 mice were injected with corn oil or 1 mg 4-iodo-6-phenyl pyrimidine (# 16) suspended in corn oil for 6 hours before removal of the livers. After homogenizing tissue, […] total liver protein was assessed for L-dopachrome methyl ester tautomerase activity.
as §2

[6] = test system: A549 human lung adenocarcinoma cells; assay: A549 NSCLC xenograft tumor outgrowth; format: in vivo, Balb/c (nu/nu) mice; details: 2 mg intraperitoneally every day; vehicle mice developed lesions beginning at day 16; FIG. 12
Description: FIG. 12 is a graph showing Inhibition of NSCLC tumor growth by the MIF inhibitor 4-iodo-6-phenylpyrimidine. Balb/c (nu/nu mice were injected with 1×10^6 A549 human lung adenocarcinoma cells subcutaneously (4 mice/group). Vehicle or 4-iodo-6-phenylpyrimidine (Cmpd 16; 2 mg) were injected intraperitoneally every day for the course of the study. Tumor growth was monitored by palpation every fourth day as indicated. Results are expressed as percent of tumor free mice/group.
In a study designed to evaluate the in vivo efficacy of anti-MIF compounds, 4-iodo-6-phenylpyrimidine (compound #16) was tested in a xenograft model of human non-small cell lung cancer (NSCLC) outgrowth.

HIF-1α [7] = assay: Anoxia-induced HIF-1α stabilization in siRNA transfected MIA-Paca-2 cells; format: cell-based, human; details: 0.2% O2 (anoxia) 16 hours; FIG. 4A
Description: (§3) Nuclear and cytosolic extracts from MIF-depleted cells were exposed to normoxia, anoxia (FIG. 4A) or hypoxia (FIG. 4B) and immunoblotted for HIF-1α. FIG. 4C is a graph showing real time PCR analysis of VEGF mRNA levels from control and MIF-depleted cells exposed to hypoxia for different times.
(§4) MIF-specific siRNA was transfected into MIA-Paca-2 cells before being incubated in 0.2% O2 (anoxia) for 16 hours. […] To more thoroughly investigate the requirements for MIF in hypoxia-mediated HIF-1α stabilization, a time course evaluating MIF containing vs. deficient pancreatic adenocarcinoma cells exposed to 1% O2 (hypoxia) was performed.

MIF = MIF depletion by siRNA in MIA-Paca-2 cells (immunoblot); format: cell-based, human; details: FIG. 4A
Description: as §3, §4

A549 cells = assay: A549 cell migration in collagen coated transwell chambers; format: cell-based, human; details: FIG. 10B
Description: In FIG. 10A, 500 nM rMIF was pre-mixed for 30 seconds with the indicated inhibitor concentrations followed by the addition of 2 mM final concentration of L-dopachrome methyl ester substrate. 5 minutes later OD 475 was measured spectrophotometrically (tautomerization leads to colorless substrate) and resulting data graphed. In FIG. 10B, 2×10^5 A549 cells transfected or pre-incubated with the indicated inhibitor or DMSO were added to the upper chamber of collagen coated transwell chambers. 16 hours later cells in the upper chamber were removed by swabbing and the bottom of the membranes were stained with crystal violet, solubilized, read at OD 570, and resulting data graphed.

Ic1cc(-c2ccccc2)ncn1 [compound #16, 4-iodo-6-phenylpyrimidine]
inhibition at 50 µM (VEGF): > 80%
inhibition of A549 soft agar growth [1]: inhibit A549 soft agar growth
potency relative to ISO-1, soft agar growth [1]: 5-10 fold
IC50 (recombinant MIF (rMIF); 500 nM rMIF pre-mixed 5 or 10 min with inhibitor, 2 mM L-dopachrome methyl ester, FIG. 8, read-out: IC50, MIF enzyme (tautomerase) inhibition): ~5 µM
suppression of HIF-1α, of control (HIF-1α [2]; FIG. 9B): ~50%
inhibition of CoCl2-induced HIF-1α stabilization (HIF-1α [2]; 100 μM, pancreatic carcinoma cells, FIG. 9A): completely inhibited
difference in biological inhibitory activity (HIF-1α) between #16 and TI (HIF-1α [2]; 4-iodo-6-phenylpyrimidine versus TI): ~5 fold
toxicity [3]: no apparent toxicity
inhibition at 50 µM (HIF-1α [4]): 75 to 90%
inhibition of MIF receptor (CD74) binding (MIF/sCD74): 50%
HIF-1α stabilization block in MIF-containing fibroblasts (HIF-1α [5]; MIF^+/− murine embryonic fibroblasts): potently blocks
HIF-1α stabilization in MIF-deficient fibroblasts (HIF-1α [5]; MIF^−/− fibroblasts): unaffected
inhibition at 50 mg/kg (endogenous liver MIF): > 50%
tumor outgrowth (tumor free mice) [6]: remained tumor free

MIF siRNA: short interfering RNA (siRNA) oligos designed against human MIF; sense SEQ ID NO:3, antisense SEQ ID NO:4 (sense CCUUCUGGUGGGGAGAAAUTT; antisense AUUUCUCCCCACCAGAAGGTT; sugars from the 5' end r19 d2, backbone not given here)
HIF-1α stabilization in nuclei after MIF depletion (HIF-1α [7]): completely deficient
loss of cytoplasmic MIF expression (MIF): greater than 90%

O=c1c(-c2ccc(O)c(O)c2)coc2cc(O)ccc12 [TI, 3′, 4′,7-tryhydroxyisoflavone, reference compound]
inhibition at 50 µM (VEGF): ~20%
MIF inhibitory activity in applicant's assay compared with reported Ki (recombinant MIF (rMIF); TI from two commercial sources): several orders of magnitude weaker than claimed
suppression of HIF-1α, of control (HIF-1α [2]; FIG. 9B): no inhibitory activity
inhibition of HIF-1α stabilization (HIF-1α [2]; 50 μM, FIG. 9B): only slight inhibitory activity

COC(=O)CC1CC(c2ccc(O)cc2)=NO1 (stereo not shown) [ISO-1, S, R-3-(4-hydroxyphenyl)-4,5-dihydro-5-isoxazole acetic acid methyl ester, reference compound]
inhibition of A549 soft agar growth [1]: inhibit A549 soft agar growth
enzyme inhibition at 10 μM (recombinant MIF (rMIF); 10 μM, FIG. 10A): completely inactive
inhibition of CoCl2-induced HIF-1α stabilization (HIF-1α [2]; concentrations of 100 μM or higher): only moderately effective
inhibition of MIF receptor (CD74) binding (MIF/sCD74): very efficient blocking
migration inhibition at 10 μM (A549 cells): completely inactive
